Source: article PMC3943356 (Bioorganic & medicinal chemistry letters, 2013)
Where a name gives a salt, the structure may show the parent alone. Read-outs that look alike come from different tables or passages of the source.

Assays:
VGLUT [1] = target: VGLUT
VGLUT [2] = experiment: Inhibition of 3H-L-Glu uptake into synaptic vesicles prepared from rat brain; conditions: for reduction (block) of L-Glu uptake: compound at 250 µM, 3H-L-Glu 250 µM
KA receptors = conditions: cited from earlier work
NMDA receptor = conditions: cited from earlier work
AMPA receptors = conditions: cited from earlier work
VGLUT [3] = conditions: read-out: Ki at VGLUT; cited from earlier work

With O=C(O)c1cc(C(=O)O)c2c(ccc3cc4ccccc4cc32)n1 [5,6-NQDC, Naphtho[2,3-f]quinoline-1,3-dicarboxylic acid] as the compound, how does the Ki (VGLUT [1]) read?
The Ki was roughly 60 µM.

And the “reduction (block) of L-Glu uptake” value (VGLUT [2])?
Its value is “over 80%”.

For O=C(O)c1cc(C(=O)O)c2ccc3cc4ccccc4cc3c2n1 [7,8-NQDC, Naphtho[2,3-h]quinoline-2,4-dicarboxylic acid], which Ki (VGLUT [1]) is on record?
Its Ki is roughly 60 µM.

And the “reduction (block) of L-Glu uptake” value (VGLUT [2])?
The value was “similarly effective”.

With C[C@]12CC[C@@H]3c4ccc(OC(=O)CCC(=O)O)cc4CC[C@H]3[C@@H]1CCC2=O [Estrone hemisuccinate] as the compound, how does the “reduction (block) of L-Glu uptake” value (VGLUT [2]) read?
The value was “inactive”.

For C[C@]12CC[C@@H]3c4ccc(O)cc4CC[C@H]3[C@@H]1CCC2=O [Estrone], which “reduction (block) of L-Glu uptake” value (VGLUT [2]) is on record?
Its value is “did not block L-Glu uptake to any appreciable level”.

Which Km (VGLUT [2]; read-out: Km of L-Glu uptake, Lineweaver-Burk plot, Fig. 3) does the source give for N[C@@H](CCC(=O)O)C(=O)O [L-Glu, Glutamate] here?
The Km was 2500 µM.

Which “effect on KA receptors” value (KA receptors) does the source give for CC(=O)[C@H]1CC[C@H]2[C@@H]3CC[C@@H]4C[C@@H](OS(=O)(=O)O)CC[C@]4(C)[C@H]3CC[C@]12C [Pregnanolone sulfate] here?
The value was “inhibits”.

And the “effect on NMDA receptor” value (NMDA receptor)?
Its value is “inhibits”.

And the “effect on AMPA receptors” value (AMPA receptors)?
Its value is “inhibits”.

What about the “activity relative to the endogenous substrate L-Glu” value (VGLUT [2]) of the same compound?
The value was “approximately 100 fold”.

And the mechanism of inhibition (VGLUT [2]; Lineweaver-Burk plot, increase in Km,app, no change in Vmax)?
The mechanism of inhibition was “competitive inhibition”.

And the “reduction (block) of L-Glu uptake” value (VGLUT [2])?
Its value is 85%.

For CC(=O)[C@H]1CC[C@H]2[C@@H]3CC=C4C[C@@H](O)CC[C@]4(C)[C@H]3CC[C@]12C [Pregnenolone], which “reduction (block) of L-Glu uptake” value (VGLUT [2]) is on record?
The value was “did not block L-Glu uptake to any appreciable level”.

Which Ki (VGLUT [3]) does the source give for CC(C)CC1C(=O)N2CCCC2C2(O)OC(NC(=O)C3C=C4c5cccc6[nH]c(Br)c(c56)CC4N(C)C3)(C(C)C)C(=O)N12 (centres unmarked) [bromocryptine] here?
The Ki was roughly 22 µM.

Which results are given for Pregnenolone sulfate?
effect on NMDA receptor (NMDA receptor): potentiate; reduction (block) of L-Glu uptake (VGLUT [2]): 70%
